Measured values as given in patent US20240261274A1, “TREATMENT OF MYC-DRIVEN CANCERS WITH GSPT1 DEGRADERS” (MONTE ROSA THERAPEUTICS, INC., priority 2021, published 2024).

Columns and labels:
GSPT1 = GSPT1 (Homo sapiens, UniProt P15170+Q96SW2); test: GSPT1 degradation by Compound 345 in cancer cell lines (western blot); assay type: cell-based; parameters: endogenous in cells; host or cells: MM1 S (ATCC CRL-2974)
Description: NCI-H1155 and ABC-1 were taken as representative of N-Myc positive NSCLC. NCI-H2023 and NCI-H441 as of N-Myc low representatives. 10A: western blotting analysis performed after 6 (NCI-H1155 and ABC-1) or 24 hr (NCI-H2023 and NCI-H441) posttreatment. […] 10B: corresponding densitometry analyses of GSPT1 normalized to GAPDH. DC50 and Dmax as indicated.
NCI-H1155 and ABC-1 were taken as representative of N-Myc high NSCLC. NCI-H2023 and NCI-H441 as of N-Myc low representatives. Left: densitometry analysis of GSPT1 normalized to GAPDH from western blotting following treatment with Compound 345 (as indicated). Right: 72 hr viability assay following treatment with Compound 345 as assessed by Cell Titer Glo. For both the GSPT1 expression plot and the cell viability plot, two Myc-driven cancer cell lines are represented by upright triangles and diamonds. Two non-Myc-driven cancer cell lines are represented by upside down triangles and circles.
NCI-H1155 and NCI-H2023 were taken as representative of N-Myc high and low NSCLC. 12A: western blot analysis probing for GSPT1 and N-Myc following treatment with Compound 345 (as indicated). Tubulin was used as a loading control. N-Myc could not be detected by western blotting in the NCI-H2023 line. 12B: Single-sample gene set enrichment analysis (ssGSEA) results for a Myc target gene set at 6 hours (left) and 24 hours (right) after treatment. ssGSEA scores were normalized to DMSOs for each cell line and averaged for three replicates. Error bars denote+/−1 s.d. across replicates.
NCI-H1836 and NCI-H1876 were taken as two representatives of L-Myc high SCLC. Western blot analysis probing for GSPT1 and L-Myc following treatment with Compound 345 as indicated. GAPDH was used as a loading control.
FIGS. 16A, 16B and 16C: Activity of Compound 345 in the c-Myc high multiple myeloma MM1S cell line. […] GAPDH was used as a loading control. […] Lenalidomide was used as a benchmark. 16C: Antiproliferative activity of Compound 345 (as indicated) following treatment with Compound 345 for 72 hr as assessed by Cell Titer Glo assay.
(§1) FIGS. 18A, 18B and 18C: Activity of Compound 345 in the c-Myc high WSU-DLCL2 lymphoma cell line. […] GAPDH was used as a loading control. 18B: Antiproliferative activity of Compound 345 (as indicated) following treatment with Compound 345 for 72 hr as assessed by Cell Titer Glo assay. […] Mice were dosed daily PO with vehicle or Compound 345 at 3, 10 mg/kg (as indicated). Tumor volumes were measured twice weekly. X-axis represents the number of days for treatment duration; y-axis represents mean tumor volume (in mm^3)±SEM. CHOP was used as a positive control for this model. Drug-free vehicle is represented by black circles; CHOP combination represented by light squares; Compound 345 3 mg/kg represented by triangles; Compound 345 10 mg/kg represented by dark squares.
as §1, with “19A, 19B,” for “18A, 18B”, “19C:” for “18C:”, “DOHH-2” for “WSU-DLCL2”, “19B:” for “18B:”, “model.” for “model. Drug-free vehicle is represented by black circles; CHOP combination represented by light squares; Compound 345 3 mg/kg represented by triangles; Compound 345 10 mg/kg represented by dark squares.”
Western blot analysis performed 24 hr post treatment initiation. GAPDH was used as a loading control. GSPT1 DC50 and Dmax as indicated.

[1] = test system: WSU-DLCL2 triple hit lymphoma cell line derived xenograft; test: WSU-DLCL2 triple hit lymphoma CDX efficacy study; assay type: in vivo, immunodeficient mice; settings: oral daily 3 mg/kg and 10 mg/kg
Description: Additionally, cell line derived xenograft (CDX) models were produced for the triple hit lymphoma cell line (WSU-DLCL2) in immunodeficient mice. Oral dosing of Compound 345 was performed daily at doses of 3 mg/kg and 10 mg/kg as well as the CHOP combination (a well-known lymphoma treatment regimen) and a no-drug vehicle control. Tumor volumes were measured (mm^3) at regular intervals over the course of up to 30 days depending on the animal.
In vivo efficacy study: NCI-H1155, MM1 S, WSU-DLCL2, DOHH-2 cells were maintained in vitro in individual medium and conditions as recommended by the providers and incubated at 37° C. in an atmosphere of 5% CO2 in air. 0.5 million (NCI-H1155), 10 million (MM1S) or 5 million (WSU-DLCL2 and DOHH-2) cells were resuspended in typically 0.1-0.2 mL of PBS with Matrigel (50:50) and were inoculated into 6-8 weeks old BALB/c nude female (NCI-H115, WSU-DLCL2), NOD/SCID (MM1S) or CB-17SCID (DOHH-2) mice and allowed to grow to 150-200 mm3 in size. […] Tumor volumes were measured at least twice weekly during the treatment period using a caliper and the volume was expressed in mm3 using the formula: V=0.5 a×b2 where a and b were the long and short diameters of the tumor, respectively. […] Data are expressed as the mean±SEM. All data was analyzed using GraphPad Prism 8.1.2 (GraphPad).

Sequence of GSPT1 (P15170 whole entry): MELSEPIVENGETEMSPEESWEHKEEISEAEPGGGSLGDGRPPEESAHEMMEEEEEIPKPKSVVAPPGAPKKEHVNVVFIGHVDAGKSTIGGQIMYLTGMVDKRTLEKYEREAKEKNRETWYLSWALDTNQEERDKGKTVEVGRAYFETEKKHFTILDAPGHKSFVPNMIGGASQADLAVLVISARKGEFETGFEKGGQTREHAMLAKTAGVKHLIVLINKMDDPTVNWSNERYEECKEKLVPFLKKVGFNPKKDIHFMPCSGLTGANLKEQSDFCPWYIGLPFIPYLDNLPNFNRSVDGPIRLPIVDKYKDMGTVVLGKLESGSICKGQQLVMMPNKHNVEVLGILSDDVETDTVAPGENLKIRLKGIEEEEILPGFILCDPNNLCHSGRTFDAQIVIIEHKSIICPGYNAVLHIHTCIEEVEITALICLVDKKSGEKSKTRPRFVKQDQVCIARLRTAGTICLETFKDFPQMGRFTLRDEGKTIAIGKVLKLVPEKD
Sequence of GSPT1 (Q96SW2 whole entry): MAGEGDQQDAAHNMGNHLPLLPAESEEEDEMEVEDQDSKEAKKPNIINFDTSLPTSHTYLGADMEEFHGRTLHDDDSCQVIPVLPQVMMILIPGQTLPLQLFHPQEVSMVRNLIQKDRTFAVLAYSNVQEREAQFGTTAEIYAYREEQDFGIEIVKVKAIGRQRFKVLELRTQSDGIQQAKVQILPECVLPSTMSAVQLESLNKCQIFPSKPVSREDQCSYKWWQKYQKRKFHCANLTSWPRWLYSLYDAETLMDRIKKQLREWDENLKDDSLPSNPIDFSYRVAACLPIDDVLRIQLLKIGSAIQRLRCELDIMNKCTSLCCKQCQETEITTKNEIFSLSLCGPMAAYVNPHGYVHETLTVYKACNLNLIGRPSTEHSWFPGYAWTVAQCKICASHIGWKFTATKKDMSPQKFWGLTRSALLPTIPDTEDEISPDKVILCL
Sequence of GSPT1 (Q16531 whole entry partner): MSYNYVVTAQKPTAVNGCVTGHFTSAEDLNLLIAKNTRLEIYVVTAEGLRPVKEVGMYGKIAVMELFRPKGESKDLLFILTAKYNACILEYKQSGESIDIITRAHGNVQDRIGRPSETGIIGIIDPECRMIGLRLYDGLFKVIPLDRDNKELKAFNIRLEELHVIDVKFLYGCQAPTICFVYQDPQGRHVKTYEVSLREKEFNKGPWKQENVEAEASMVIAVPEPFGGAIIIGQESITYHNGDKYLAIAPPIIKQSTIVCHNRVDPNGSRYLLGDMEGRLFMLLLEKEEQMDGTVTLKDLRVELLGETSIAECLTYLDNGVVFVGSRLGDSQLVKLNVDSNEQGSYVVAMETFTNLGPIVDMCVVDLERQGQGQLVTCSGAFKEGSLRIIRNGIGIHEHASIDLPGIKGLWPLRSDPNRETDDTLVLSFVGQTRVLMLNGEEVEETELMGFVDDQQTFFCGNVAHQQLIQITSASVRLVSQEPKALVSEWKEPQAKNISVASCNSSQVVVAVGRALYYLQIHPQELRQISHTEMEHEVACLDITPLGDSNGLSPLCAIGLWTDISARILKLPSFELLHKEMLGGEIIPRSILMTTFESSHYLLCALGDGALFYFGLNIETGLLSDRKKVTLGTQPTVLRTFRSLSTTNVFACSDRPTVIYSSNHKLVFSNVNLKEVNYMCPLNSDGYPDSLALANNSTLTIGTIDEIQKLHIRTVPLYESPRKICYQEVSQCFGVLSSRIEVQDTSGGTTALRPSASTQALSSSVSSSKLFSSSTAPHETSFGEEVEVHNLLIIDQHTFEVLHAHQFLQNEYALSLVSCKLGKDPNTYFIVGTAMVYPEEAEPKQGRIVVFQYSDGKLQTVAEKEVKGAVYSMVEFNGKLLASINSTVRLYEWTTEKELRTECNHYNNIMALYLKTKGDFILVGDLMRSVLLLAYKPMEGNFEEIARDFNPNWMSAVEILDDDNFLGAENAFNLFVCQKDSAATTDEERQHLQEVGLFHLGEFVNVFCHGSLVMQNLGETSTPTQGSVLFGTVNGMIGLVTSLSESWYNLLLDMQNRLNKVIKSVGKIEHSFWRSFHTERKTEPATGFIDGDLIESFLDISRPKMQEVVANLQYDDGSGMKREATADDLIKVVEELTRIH

O=C1CCC(N2Cc3ccc(COC(=O)Nc4cc(OC(F)(F)F)ccc4F)cc3C2=O)C(=O)N1 (stereo not shown) [Compound 345, (2-(2,6-dioxopiperidin-3-yl)-3-oxoisoindolin-5-yl)methyl(2-fluoro-5-(trifluoromethoxy)phenyl)carbamate]
GSPT1 level (GSPT1; DOHH-2 lymphoma cell line, 24 hr post treatment): Degradation of GSPT1
GSPT1 level (GSPT1; MM1S multiple myeloma cell line, 24 hr post treatment): Degradation of GSPT1
GSPT1 level (GSPT1; NSCLC lines NCI-H1155, ABC-1 (6 hr), NCI-H2023, NCI-H441 (24 hr)): Induced-degradation of GSPT1
GSPT1 level, timecourse (GSPT1; NSCLC lines NCI-H1155 and NCI-H2023): degradation of GSPT1
GSPT1 level, timecourse (GSPT1; SCLC lines NCI-H1836 and NCI-H1876 (L-Myc high)): degradation of GSPT1
GSPT1 level (GSPT1; WSU-DLCL2 lymphoma cell line, 24 hr post treatment): Degradation of GSPT1
tumor volume [1]: anti-tumor activity
